The source of these data is PubChem BioAssay AID1963845 (Molecular Pharmacology Branch, DTP, NCI, 2024).
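Also: luminescence signal used as surrogate measure of viable cells; spheroids exposed to compounds for seven days before readout; 100% = DMSO vehicle control viability as luminescence relative to vehicle.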

The first test has as its system 429239-143-T-J1-PDC complex spheroid viability. The test is described as follows: Anticancer human tumor 429239-143-T-J1-PDC patient-derived small cell lung carcinoma cell line growth inhibition [POLQ]. As to conditions: second compound 0.1 µM; first compound 1 µM; stronger effect = lower value. A digest of the protocol:
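Patient-derived tumour cells were co-cultured with HUVEC and mesenchymal stem cells as multicellular spheroids at 37 °C. They were treated with POLQ inhibitors (novobiocin, ART-558, RP6685) alone or combined with other agents. Top concentrations were at or near clinical Cmax (otherwise 10 microM; SN-38 at 1 microM), decreasing in half-log steps.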
`CC1COCCN1c1cc(-c2ccnn2C)c2ccnc(-c3ccn[nH]3)c2n1` (configuration not stated) + Nc1ccc(C#CCN(C(=O)Cc2ncc(C(F)(F)F)cc2C(F)(F)F)c2ccc(F)cc2)nn1: the viability, T/C was 27.8%.
Still for that read-out and setting: the figure for `COc1cccc2c1C(=O)c1c(O)c3c(c(O)c1C2=O)CC(O)(C(=O)CO)CC3OC1CC(N)C(O)C(C)O1` (configuration not stated) + Nc1ccc(C#CCN(C(=O)Cc2ncc(C(F)(F)F)cc2C(F)(F)F)c2ccc(F)cc2)nn1 is 0.82%.

Still in this test, the particulars now being: second compound 0.1 µM; first compound 3.16 µM; stronger effect = lower value.
As to `C#Cc1c(F)ccc2cc(O)cc(-c3ncc4c(N5CC6CCC(C5)N6)nc(OCC56CCCN5CC(F)C6)nc4c3F)c12` (configuration not stated) + Cc1cccc(N(C)C(=O)C2C(O)CCN2c2nc(C)cc(C(F)(F)F)c2C#N)c1, the viability, T/C was 91.1%.
`CC1COCCN1c1cc(-c2ccnn2C)c2ccnc(-c3ccn[nH]3)c2n1` (configuration not stated) + Cc1cccc(N(C)C(=O)C2C(O)CCN2c2nc(C)cc(C(F)(F)F)c2C#N)c1: the viability, T/C is 9.92%.
With `COc1cc2cc(C(=O)CCC(=O)O)sc2cc1OC` + Cc1cccc(N(C)C(=O)C2C(O)CCN2c2nc(C)cc(C(F)(F)F)c2C#N)c1, the viability, T/C is 94.4%.
Still for that read-out and setting: the figure for `CC1COCCN1c1cc(-c2ccnn2C)c2ccnc(-c3ccn[nH]3)c2n1` (configuration not stated) + Nc1ccc(C#CCN(C(=O)Cc2ncc(C(F)(F)F)cc2C(F)(F)F)c2ccc(F)cc2)nn1 is 5.19%; for `COc1cccc2c1C(=O)c1c(O)c3c(c(O)c1C2=O)CC(O)(C(=O)CO)CC3OC1CC(N)C(O)C(C)O1` (configuration not stated) + Nc1ccc(C#CCN(C(=O)Cc2ncc(C(F)(F)F)cc2C(F)(F)F)c2ccc(F)cc2)nn1 it is 0.06%.

The test is the same for the next values; noted with them: second compound 0.1 µM; first compound 10 µM; stronger effect = lower value.
As to `C#Cc1c(F)ccc2cc(O)cc(-c3ncc4c(N5CC6CCC(C5)N6)nc(OCC56CCCN5CC(F)C6)nc4c3F)c12` (configuration not stated) + Cc1cccc(N(C)C(=O)C2C(O)CCN2c2nc(C)cc(C(F)(F)F)c2C#N)c1, the viability, T/C was 103%.
Same read-out and setting: the figure for `CC1COCCN1c1cc(-c2ccnn2C)c2ccnc(-c3ccn[nH]3)c2n1` (configuration not stated) + Cc1cccc(N(C)C(=O)C2C(O)CCN2c2nc(C)cc(C(F)(F)F)c2C#N)c1 is 10.2%; for `COc1cc2cc(C(=O)CCC(=O)O)sc2cc1OC` + Cc1cccc(N(C)C(=O)C2C(O)CCN2c2nc(C)cc(C(F)(F)F)c2C#N)c1 it is 101%.
On the same count and under the same terms, the figure for `CC1COCCN1c1cc(-c2ccnn2C)c2ccnc(-c3ccn[nH]3)c2n1` (configuration not stated) + Nc1ccc(C#CCN(C(=O)Cc2ncc(C(F)(F)F)cc2C(F)(F)F)c2ccc(F)cc2)nn1 is 4.25%; for `COc1cccc2c1C(=O)c1c(O)c3c(c(O)c1C2=O)CC(O)(C(=O)CO)CC3OC1CC(N)C(O)C(C)O1` (configuration not stated) + Nc1ccc(C#CCN(C(=O)Cc2ncc(C(F)(F)F)cc2C(F)(F)F)c2ccc(F)cc2)nn1 it is 0.05%.

Staying with this test, now noted: second compound 0.316 µM; first compound 0.0316 µM; stronger effect = lower value.
For the molecule `C#Cc1c(F)ccc2cc(O)cc(-c3ncc4c(N5CC6CCC(C5)N6)nc(OCC56CCCN5CC(F)C6)nc4c3F)c12` (configuration not stated) + Cc1cccc(N(C)C(=O)C2C(O)CCN2c2nc(C)cc(C(F)(F)F)c2C#N)c1, the viability, T/C is 99.6%.
The same measure, in the same setting: the result for `CC1COCCN1c1cc(-c2ccnn2C)c2ccnc(-c3ccn[nH]3)c2n1` (configuration not stated) + Cc1cccc(N(C)C(=O)C2C(O)CCN2c2nc(C)cc(C(F)(F)F)c2C#N)c1 reads 82.1%; that for `COc1cc2cc(C(=O)CCC(=O)O)sc2cc1OC` + Cc1cccc(N(C)C(=O)C2C(O)CCN2c2nc(C)cc(C(F)(F)F)c2C#N)c1, 109%.
On the same count and under the same terms, the figure for `CC1COCCN1c1cc(-c2ccnn2C)c2ccnc(-c3ccn[nH]3)c2n1` (configuration not stated) + Nc1ccc(C#CCN(C(=O)Cc2ncc(C(F)(F)F)cc2C(F)(F)F)c2ccc(F)cc2)nn1 is 91.5%; for `COc1cccc2c1C(=O)c1c(O)c3c(c(O)c1C2=O)CC(O)(C(=O)CO)CC3OC1CC(N)C(O)C(C)O1` (configuration not stated) + Nc1ccc(C#CCN(C(=O)Cc2ncc(C(F)(F)F)cc2C(F)(F)F)c2ccc(F)cc2)nn1 it is 87.3%.

Staying with this test, now noted: second compound 0.316 µM; first compound 0.1 µM; stronger effect = lower value.
For the molecule `C#Cc1c(F)ccc2cc(O)cc(-c3ncc4c(N5CC6CCC(C5)N6)nc(OCC56CCCN5CC(F)C6)nc4c3F)c12` (configuration not stated) + Cc1cccc(N(C)C(=O)C2C(O)CCN2c2nc(C)cc(C(F)(F)F)c2C#N)c1, the viability, T/C is 100%.
Same read-out and setting: the result for `CC1COCCN1c1cc(-c2ccnn2C)c2ccnc(-c3ccn[nH]3)c2n1` (configuration not stated) + Cc1cccc(N(C)C(=O)C2C(O)CCN2c2nc(C)cc(C(F)(F)F)c2C#N)c1 reads 55.4%; that for `COc1cc2cc(C(=O)CCC(=O)O)sc2cc1OC` + Cc1cccc(N(C)C(=O)C2C(O)CCN2c2nc(C)cc(C(F)(F)F)c2C#N)c1, 118%.
On the same count and under the same terms, the result for `CC1COCCN1c1cc(-c2ccnn2C)c2ccnc(-c3ccn[nH]3)c2n1` (configuration not stated) + Nc1ccc(C#CCN(C(=O)Cc2ncc(C(F)(F)F)cc2C(F)(F)F)c2ccc(F)cc2)nn1 reads 78.6%.
On to `COc1cccc2c1C(=O)c1c(O)c3c(c(O)c1C2=O)CC(O)(C(=O)CO)CC3OC1CC(N)C(O)C(C)O1` (configuration not stated) + Nc1ccc(C#CCN(C(=O)Cc2ncc(C(F)(F)F)cc2C(F)(F)F)c2ccc(F)cc2)nn1, for which the viability, T/C is 53.6%.

Still in this test, the particulars now being: second compound 0.316 µM; first compound 0.316 µM; stronger effect = lower value.
`C#Cc1c(F)ccc2cc(O)cc(-c3ncc4c(N5CC6CCC(C5)N6)nc(OCC56CCCN5CC(F)C6)nc4c3F)c12` (configuration not stated) + Cc1cccc(N(C)C(=O)C2C(O)CCN2c2nc(C)cc(C(F)(F)F)c2C#N)c1: the viability, T/C was 98.5%.
As to `CC1COCCN1c1cc(-c2ccnn2C)c2ccnc(-c3ccn[nH]3)c2n1` (configuration not stated) + Cc1cccc(N(C)C(=O)C2C(O)CCN2c2nc(C)cc(C(F)(F)F)c2C#N)c1, the viability, T/C was 29.9%.
Regarding `COc1cc2cc(C(=O)CCC(=O)O)sc2cc1OC` + Cc1cccc(N(C)C(=O)C2C(O)CCN2c2nc(C)cc(C(F)(F)F)c2C#N)c1, the viability, T/C is 99.9%.
Still for that read-out and setting: the figure for `CC1COCCN1c1cc(-c2ccnn2C)c2ccnc(-c3ccn[nH]3)c2n1` (configuration not stated) + Nc1ccc(C#CCN(C(=O)Cc2ncc(C(F)(F)F)cc2C(F)(F)F)c2ccc(F)cc2)nn1 is 64.7%.
Regarding `COc1cccc2c1C(=O)c1c(O)c3c(c(O)c1C2=O)CC(O)(C(=O)CO)CC3OC1CC(N)C(O)C(C)O1` (configuration not stated) + Nc1ccc(C#CCN(C(=O)Cc2ncc(C(F)(F)F)cc2C(F)(F)F)c2ccc(F)cc2)nn1, the viability, T/C was 6.68%.
